Where a name gives a salt, the structure may show the parent alone.
Experiments:
human 5-HT1A receptor = molecular target: T1, human 5-HT1A receptor (Homo sapiens, UniProt P08908); assay: Affinity measurement of the compounds to human 5-HT1A receptor (in vitro), [3H]8-OH-DPAT binding; details: test compound 100 nmols/L, [3H]8-OH-DPAT 0.25 nmols/L, CHO cell membrane expressing human 5-HT1A receptor; for inhibition at 0.1 µM: read-out: Percent Inhibition (%) on Each Receptor's Binding at 10^−7M, 5-HT1A
T1 construct: purchased Packard Bioscience; host or cells: CHO cells (membrane preparation)
T1 sequence (P08908 1-422): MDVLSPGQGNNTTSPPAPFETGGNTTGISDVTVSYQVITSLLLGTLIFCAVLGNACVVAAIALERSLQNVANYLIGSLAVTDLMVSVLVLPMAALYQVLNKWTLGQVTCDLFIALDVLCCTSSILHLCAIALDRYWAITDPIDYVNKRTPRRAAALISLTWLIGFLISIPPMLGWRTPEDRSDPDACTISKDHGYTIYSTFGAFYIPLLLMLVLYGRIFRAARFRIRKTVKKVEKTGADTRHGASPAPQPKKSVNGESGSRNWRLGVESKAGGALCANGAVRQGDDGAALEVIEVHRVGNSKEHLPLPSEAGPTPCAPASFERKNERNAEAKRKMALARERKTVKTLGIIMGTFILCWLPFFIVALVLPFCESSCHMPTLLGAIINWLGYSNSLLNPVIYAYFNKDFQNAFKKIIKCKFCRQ
Method in brief: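 Membranes from CHO cells expressing human 5-HT1A were incubated 60 min at 27 °C with 0.25 nmol/L [3H]8-OH-DPAT and compound in Tris/MgSO4/EDTA/ascorbate buffer, pH 7.4. Bound radioactivity was collected on PEI-soaked GF/C filters and counted; percent inhibition was corrected for non-specific binding defined with 10 μmol/L 8-OH-DPAT.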

human 5-HT3 receptor = molecular target: T2, human 5-HT3 receptor (Homo sapiens, UniProt P46098); assay: Measurement of affinity to human 5-HT3 receptor (in vitro), [3H]BRL-43694 binding; details: test compound 100 nmols/L, [3H]BRL-43694 0.5 nmols/L, HEK-293 cell membrane expressing human 5-HT3 receptor; for inhibition at 0.1 µM: read-out: Percent Inhibition (%) on Each Receptor's Binding at 10^−7M, 5-HT3
T2 construct: purchased BIOLINKS K.K; host or cells: HEK-293 cells (membrane preparation)
T2 sequence (P46098 24-478): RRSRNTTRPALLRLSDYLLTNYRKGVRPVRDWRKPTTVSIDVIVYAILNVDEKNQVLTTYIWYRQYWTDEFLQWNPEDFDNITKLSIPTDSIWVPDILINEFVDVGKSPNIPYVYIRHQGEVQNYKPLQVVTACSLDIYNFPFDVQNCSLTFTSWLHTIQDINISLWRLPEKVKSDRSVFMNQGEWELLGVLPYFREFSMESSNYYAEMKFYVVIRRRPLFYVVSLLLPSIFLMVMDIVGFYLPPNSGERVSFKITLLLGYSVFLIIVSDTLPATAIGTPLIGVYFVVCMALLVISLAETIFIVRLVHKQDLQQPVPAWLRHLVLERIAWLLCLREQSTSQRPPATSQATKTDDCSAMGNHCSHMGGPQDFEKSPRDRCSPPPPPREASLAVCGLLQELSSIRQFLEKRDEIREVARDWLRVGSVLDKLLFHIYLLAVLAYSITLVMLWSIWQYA
Method in brief: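 Membranes from HEK-293 cells expressing the receptor were incubated with 0.5 nmol/L radioligand and compound for 60 min at 25 °C in Tris/MgCl2/EDTA buffer, pH 7.5. Bound radioactivity was collected by filtration and counted. Percent inhibition was corrected for non-specific binding defined with 10 μmol/L tropisetron; compounds were tested at 100 nmol/L.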

SMILES | inhibition at 0.1 µM (human 5-HT1A receptor) | inhibition at 0.1 µM (human 5-HT3 receptor) | Percent Inhibition (%) on Each Receptor's Binding at 10^−7M, 5-HT1A (human 5-HT1A receptor) | Percent Inhibition (%) on Each Receptor's Binding at 10^−7M, 5-HT3 (human 5-HT3 receptor)
O[C@@H]1C[C@H]2CN(c3nccc4ccoc34)CCN2C1 [Production Example 111, 7-((7R,8aS)-7-hydroxyoctahydropyrrolo[1,2-a]pyrazin-2-yl)furo[2,3-c]-pyridine] | 48% | 95.5% |  | 
Fc1ccc(COc2ccc3ccnc(N4CCNCC4)c3c2)cc1 [Production Example 98, 7-(4-fluorobenzyloxy)-1-piperazin-1-ylisoquinoline] | 88.2% | 60.8% |  | 
CN1CCN(c2nccc3sc(Br)cc23)CC1 [Production Example 10, 2-bromo-4-(methylpiperazin-1-yl)thieno[3,2-c]pyridine] | 98.5% | 73.8% |  | 
Cn1c(SCCCN2CCN(c3ccc4ccccc4n3)CC2)nc2c(c1=O)CCCC2 [Example 7-27] | 87% | 90.2% |  | 
c1cc2occc2c(N2CCN3CCCCC3C2)n1 (stereo not shown) [Production Example 119, 4-octahydropyrido[1,2-a]pyrazin-2-ylfuro[3,2-c]pyridine] | 33.7% | 71.9% |  | 
Cc1cc(N2CCN(CCCSc3nc4sc5c(c4c(=O)n3N)CCCC5)CC2)nc2ccccc12 [Example 1-33] |  |  | 94.0% | 94.2%
CCn1c(CCCCN2CCN(c3ccc4ccccc4n3)CC2)nc2c(c1=O)CC(C)CC2 (stereo not shown) [Example 7-13, 3-ethyl-6-methyl-2-[4-(4-quinolin-2-ylpiperazin-1-yl)butyl]-5,6,7,8-tetrahydro-3H-quinazolin-4-one] | 90.2% | 93.6% |  | 
Cc1sc2nc(CCCCN3CCN(c4ccc5ccccc5n4)CC3)n(C)c(=O)c2c1C [Example 7-23, 3,5,6-trimethyl-2-[4-(4-quinolin-2-ylpiperazin-1-yl)butyl]-3H-thieno[2,3-d]pyrimidin-4-one] | 77% | 74.8% |  | 
Nn1c(CCCCN2CCN(c3ccc4ccccc4n3)CC2)nc2c(c1=O)CCCCC2 [Example 4-42, 3-amino-2-[4-(4-quinolin-2-ylpiperazin-1-yl)butyl]-5,6,7,8,9-pentahydro-3H-cyclohepta[d]pyrimidin-4-one] | 95.8% | 58.5% |  | 
Brc1cc2c(N3CCN4CCC[C@H]4C3)nccc2s1 [Production Example 106, 2-bromo-4-((8aS)-octahydropyrrolo[1,2-a]pyrazin-2-yl)thieno[3,2-c]-pyridine] | 101% | 98.3% |  | 
Cn1c(SCCCN2CCN(c3ccc4ccccc4n3)CC2)nc2ccccc2c1=O [Example 7-28] | 74.7% | 87.3% |  | 
COc1cc2nc(CCCCN3CCN(c4ccc5ccccc5n4)CC3)n(C)c(=O)c2cc1OC [Example 7-22, 6,7-dimethoxy-3-methyl-2-[4-(4-quinolin-2-ylpiperazin-1-yl)butyl]-3H-quinazolin-4-one] | 82.4% | 5.3% |  | 
c1cc2sccc2c(N2CCN3CCCCC3C2)n1 (stereo not shown) [Production Example 121, 4-octahydropyrido[1,2-a]pyrazin-2-ylthieno[3,2-c]pyridine] | 69.3% | 85.6% |  | 
CC1CCCc2c1nc(CCCCN1CCN(c3ccc4ccccc4n3)CC1)n(N)c2=O (stereo not shown) [Example 4-36, 3-amino-8-methyl-2-[4-(4-quinolin-2-ylpiperazin-1-yl)butyl]-5,6,7,8-tetrahydro-3H-quinazolin-4-one] | 90.4% | 87.7% |  | 
CC1CCc2nc(CCCCN3CCN(c4ccc5ccccc5n4)CC3)n(N)c(=O)c2C1 (stereo not shown) [Example 4-60, 3-amino-6-methyl-2-[4-(4-quinolin-2-ylpiperazin-1-yl)butyl]-5,6,7,8-tetrahydro-3H-quinazolin-4-one] | 96.9% | 91.5% |  | 
NN1Oc2c(sc3c2CCNC3)N=C1SCCCN1CCN(c2ccc3ccccc3n2)CC1 [Example 1-59, 3-amino-2-[3-(4-quinolin-2-ylpiperazin-1-yl)propylthio]-3,4,5,6,7,8-hexahydro-4-oxa-9-thia-1,3,7-triaza-9H-fluorene trihydrochloride] | 100% | 50% |  | 
Nn1c(NCCCN2CCN(c3ccc4ccccc4n3)CC2)nc2c(c1=O)CCCC2 [Example 6-2, 3-amino-2-[3-(4-quinolin-2-ylpiperazin-1-yl)propylamino]-5,6,7,8-tetrahydro-3H-quinazolin-4-one] | 92.4% | 39.3% |  | 
O=c1c2ccccc2nc(CCCCN2CCN(c3ccc4ccccc4n3)CC2)n1Cc1ccccc1 [Example 7-16, 3-benzyl-2-[4-(4-quinolin-2-ylpiperazin-1-yl)butyl]-3H-quinazolin-4-one] | 72.2% | 66.8% |  | 
Cn1c(CCCCN2CCN(c3ccc4ccccc4n3)CC2)nc2cccc(Cl)c2c1=O [Example 7-18, 5-chloro-3-methyl-2-[4-(4-quinolin-2-ylpiperazin-1-yl)butyl]-3H-quinazolin-4-one] | 93.1% | 68.8% |  | 
CCCn1c(CCCCN2CCN(c3ccc4ccccc4n3)CC2)nc2c(c1=O)CCCC2 [Example 7-3, 3-propyl-2-[4-(4-quinolin-2-ylpiperazin-1-yl)butyl]-5,6,7,8-tetrahydro-3H-quinazolin-4-one] | 85.8% | 84.7% |  | 
Cc1cc2c(N3CCN4CCC[C@@H]4C3)nccc2o1 [Production Example 115, 4-((8aR)-octahydropyrrolo[1,2-a]pyrazin-2-yl)-2-methylfuro[3,2-c]pyridine] | 82% | 74.3% |  | 
Oc1ccc2ccnc(N3CCN4CCC[C@H]4C3)c2c1 [Production Example 85] | 99.9% | 98.9% |  | 
Clc1ccc2c(N3CCNCC3)nccc2c1 [Production Example 57, 6-chloro-1-piperazin-1-ylisoquinoline] | 88.9% | 96.5% |  | 
c1ccc(CO[C@@H]2C[C@H]3CN(c4nccc5sccc45)CCN3C2)cc1 [Production Example 117, 4-((7R,8aS)-7-benzyloxyoctahydropyrrolo[1,2-a]pyrazin-2-yl)thieno-[3,2-c]pyridine] | 57.7% | 10.6% |  | 
c1cc2ccoc2c(N2CCNCC2)n1 [Production Example 1, 7-piperazin-1-ylfuro[2,3-c]pyridine] | 86.7% | 80.8% |  | 
Clc1ccc2ccnc(N3CCN4CCC[C@@H]4C3)c2c1 [Production Example 76, 7-chloro-1-((8aR)-octahydropyrrolo[1,2-a]pyrazin-2-yl)isoquinoline] | 96.6% | 94.4% |  | 
NN1Oc2c(sc3c2CCCCCC3)N=C1SCCCN1CCN(c2ccc3ccccc3n2)CC1 [Example 1-24, 3-amino-2-[3-(4-quinolin-2-ylpiperazin-1-yl)propylthio]-3,4,5,6,7,8,9,10-octahydro-4-oxa-11-thia-1,3-diaza-11H-cycloocta[a]-indene] | 95.7% | 79.6% |  | 
CCCc1cc(=O)[nH]c(SCCCN2CCN(c3ccc4ccccc4n3)CC2)n1 [Example 2-14, 6-propyl-2-[3-(4-quinolin-2-ylpiperazin-1-yl)propylthio]-3H-pyrimidin-4-one] | 57.7% | 51.9% |  | 
Brc1ccc2ccnc(N3CCNCC3)c2c1 [Production Example 30, 7-bromo-1-piperazin-1-ylisoquinoline] | 92.8% | 93.4% |  | 
